Test results taken from US7745450B2, “Pyrazolo[4,3-d]pyrimidines, processes for their preparation and methods for therapy” (Institute of Experimental Botany, priority 2002, dated 2010).
Where two headings read alike, the source gives them in different places. Blank lines part the entries; values can stand above or below the molecule they belong to.

How the values were obtained:
[1] = test system: CEM (human lymphoblastoid leukemia); test: In vitro cytotoxic activity, Calcein AM; assay type: cell-based; conditions: Homo sapiens, 72 h, three days
Procedure, shortened: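 CEM cells were seeded at 10^4/well in DMEM + 10% FBS and exposed to six concentrations from 200 to 0.2 μM, in triplicate, for 3 days at 37 °C and 5% CO2. Viable cells were then measured by Calcein AM fluorescence after 1 h loading.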

normal human lymphocytes = test: Immunosuppressive activity, 3H-thymidine incorporation in concanavalin A activated lymphocytes; assay type: cell-based; conditions: Lymphocyte, 72 hours, [3H]-TdR, read-out: Human lymphocytes ED50
Description: Human heparinized peripheral blood was obtained from healthy volunteers by cubital vein punction. The blood was diluted in PBS (1:3) and mononuclear cells were separated by centrifugation in Ficoll-Hypaque density gradient (Pharmacia, 1.077 g/ml) at 2200 rpm for 30 minutes. Following centrifugation, lymphocytes were washed in PBS and resuspended in cell culture medium (RMPI 1640, 2 mM glutamine, 100 U/ml penicillin, 100 μg/ml streptomycin, 10% fetal calf serum and sodium bicarbonate).
The cells were diluted at target density of 1.100.000 cells/ml were added by pipette (180 μl) into 96/well microtiter plates. Four-fold dilutions of the intended test concentration were added at time zero in 20 μl aliquots to the microtiter plate wells. Usually, test compound was evaluated at six 4-fold dilutions. In routine testing, the highest well concentration was 266.7 μM. All drug concentrations were examined in duplicates. All wells with exception of unstimulated controls were activated with 50 μl of concanavalin A (25 μg/ml). Incubations of cells with test compounds lasted for 72 hours at 37° C., in 5% CO2 atmosphere and 100% humidity. At the end of incubation period, the cells were assayed by using the [^3H]-TdR:
Cell cultures were incubated with 0.5 μCi (20 μl of stock solution […]) per well for 6 hours at 37° C. and 5% CO2. The automated cell harvester was used to lyse cells in water and adsorb the DNA onto glass-fiber filters in the format of microtiter plate. The DNA incorporated [^3H]-TdR was retained on the filter while unincorporated material passes through. The filters were dried at room temperature overnight, sealed into a sample bag with 10-12 ml of scintillant. The amount of [^3H]-TdR present in each filter (in cpm) was determined by scintillation counting in a Betaplate liquid scintillation counter. The effective dose of immunosuppressant (ED) was calculated using the following equation: ED=(CCPMdrug exposed well/mean CCPMcontrol wells)×100%.

[2] = test system: human melanoma cell line Arn8 (p53-responsive reporter); test: p53-dependent transcriptional activity, β-galactosidase reporter; assay type: cell-based; conditions: concentration inducing maximum of β-galactosidase activity
Description: Cell lines established from the human cervical carcinoma (HeLa), human breast carcinoma (MCF-7, BT549 and BR474), human osteosarcoma (HOS), human colon carcinoma (HT29), murine fibroblasts (T221acZ) and the human melanoma (Arn8) cell lines were cultured in Dubecco's Modified Eagle Medium (DMEM) supplemented with 10% fetal bovine serum. Tested compounds were added from 50 mM stock solution in dimethyl-sulphoxide (DMSO) into the culture medium at final concentration 20 μM. Control cells received an equivalent volume of DMSO.
β-galactosidase activity of human melanoma cell line […] T221acZ (both stabile transfected with a p53-responsive reporter construct pRGCΔfoslacZ) (Frebung et al., Cancer Res., 52, 1992-6976) was determined. For the determination of total β-galactosidase activity, cells were lysed by 3 freeze-thaw cycles in 0.25 M Tris pH 7.5, and lysates were assayed as described by Sambrook et al., Mol. cloning, New York, 1989.
Effect of 25 and related compounds on activation of p53 protein was also analyzed in human melanoma cell line Arn8 and murine fibroblast cell line T22LacZ expressing β-galactosidase under control of p53 responsive promoter. Induction of wt p53 in these cells treated with 20 μM 25 (6, 12 and 24 hrs) leads to activation of responsive promoter and consequently to expression of β-galactosidase. Arn8 and T221acZ cells treated with 25 were fixed and examined microscopically for β-galactosidase activity using X-gal substrate leading to about 25% blue-colored cells compared to less than 1% of blue-colored cells in DMSO-treated control cells (data not shown). The total β-galactosidase activity in Arn8 cells was also assessed using colorimetric assay.

B16 = test: In vitro cytotoxic activity, Calcein AM; assay type: cell-based; conditions: Mus musculus, B16, 72 h, three days
β-adrenergic receptors = test: Modulation of isoproterenol-induced cAMP synthesis in rat C6 glioma; assay type: cell-based; conditions: cAMP synthesis induced by 5 μM (−) isoproterenol; for IC50: read-out: I50
Description: Mechanism of action of novel compounds is presented on FIG. 3. Rat C6 glioma (ATCC N° CCL107) was cultivated in monolayer in serum-free chemically defined medium containing Ham's F10/minimal essential medium (1:1 vol/vol), 2 mM L-glutamine, 1% (vol/vol) minimal essential medium vitamins (100×), 1% (vol/vol) minimal essential medium nonessential amino acids (100×), 100 U/ml penicillin, 100 μg/ml streptomycin and 30 nM sodium selenide. Incubation was at 37° C. in a humidified atmosphere. Assays were performed in the logarithmic growth phase at a density of 2.5×10^5 cells/cm^2. Intracellular cAMP synthesis was induced by addition of 5 μM (−) isoproterenol. After 30 min incubation at 37° C. the medium was removed and the cellular amount of cAMP determined using the cAMP-enzyme immunoassay kit of Amersham. The I50 is determined from a dose-response curve in duplicate.
The effect of seven purine-analogs was measured after simultaneous addition with isoproterenol.

cdk1/cyclin B (CDC2) = cdk1/cyclin B (CDC2) (Homo sapiens, UniProt P06493); test: CDK inhibition assay, cdk1/cyclin B (CDC2) kinase, histone phosphorylation; assay type: biochemical
Procedure, shortened: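 Radiometric endpoint kinase assay under linear conditions: histone (1 mg/ml) phosphorylated with 15 μM ATP and [γ-32P]ATP in 50 mM HEPES pH 7.4, 10 mM MgCl2, 1 mM DTT. IC50 obtained graphically from dose-response curves of % maximal activity, read by imaging analyzer.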

[3] = test system: PHA-stimulated lymphocytes (PBMC); test: Proliferation of PHA-stimulated lymphocytes (PBMC), flow cytometric cell count; assay type: cell-based, human; conditions: 96 hours, IL-2
Description: Peripheral blood mononuclear cells (PBMC): Human peripheral blood mononuclear cells were isolated by density gradient (Ficoll-Hypaque) (LSM, ICN Biomedicals Inc.). PBMC were stimulated with 5 μg/ml phytohemaglutinin A (PHA) (Sigma) during 24-48 hours in IMDM supplemented with 10% FCS at 37° C. After washing off the PHA, PBMC were incubated with interleukin-2 (IL-2) (10 U/ml) (Genzyme).
(§1) Cells were plated at 10000 per well in 200 μl IMDM medium and incubated with 0-50 μM of the novel compounds (Tab 8), by addition of drug directly to the culture medium and incubated at 37° C. for 96 hours (Tab 8). Absolute cell number was determined by addition of a known concentration Fluoresbrite microspheres (FITC) (Polysciences, Inc.). The absolute number of cells/well was calculated as: {(total number of beads added/well)/(number of beads measured)×(number of measured cells in the gate of interest)}. All analyses were performed with a FACScan (BD), using CELLQuest software (Becton Dickinson).
PHA-stimulated lymphocytes (PBMC) were tested for their cytotoxicity as one of the normal counterparts of the cell lines. Cells were grown for 96 hours in the presence of IL-2 and different concentrations of the novel compounds and cell number was counted on the flow cytometer.

[4] = test system: myeloid leukemia KG1 cell line; test: Cell proliferation of KG1, flow cytometric cell count; assay type: cell-based, human; conditions: 96 hours, read-out: KG1 IC50
Description: (§2) Cell lines: Human leukemic cell lines were obtained from the American Type Culture Collection (ATCC, Rockville, Md., USA). They were cultured in Iscove's Modified Dulbecco's Medium (IMDM) supplemented with 10% heat inactivated fetal calf serum (FCS), 200 U/ml penicillin, 200 μg/ml streptomycin and 1 μg/ml amphotericin B. Cells were cultured in a 5% CO2-95% air fully humidified incubator. For effects on clonogenic output, 1000 cells/well were plated in duplicate in methylcellulose (0.9%), supplemented with 20% FCS for 14 days.
as §1
(§3) Response of the myeloid leukemia KG1 and T-lymphocyte leukemia Molt3 cell lines to the cytostatic effect of the novel compounds was determined using the above-mentioned standardized bead suspension that was used to determine the absolute cell number by flow cytometric (FCM) measurement. Cells were grown in the presence of increasing concentration of the novel compounds.
To determine reversibility of the effects of the novel compounds, cells were plated at 10000 per well and exposed to 0-50 μM of the compounds for the time indicated, followed by washing in phosphate-buffered saline (PBS) (Life Technologies) and reseeded into drug-free medium for 7 additional days. An identical set of cells was plated and exposed to the drugs for 7 additional days. After 7 days (168 hours), the relative cell number was assayed by flow cytometry.

[5] = test system: T-lymphocyte leukemia Molt3 cell line; test: Cell proliferation of Molt3, flow cytometric cell count; assay type: cell-based, human; conditions: 96 hours
Description: as §2, §1, §3

MMK1 protein kinase = MMK1 protein kinase (Vicia faba, UniProt A0AAV1B7B8); test: MMK1 protein kinase activity; assay type: biochemical
Procedure, shortened: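 Plant CDK was purified from extracts on p13^suc1-beads or by anti-cdc2a-MS immunopurification, and MMK1 was immunopurified from Vicia faba extracts. Kinase activity was read as radioactivity incorporated into histone H1 or myelin basic protein, quantified by phosphoimager.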

[6] = test system: Cytokinin-dependent tobacco callus Nicotiana tabacum L. cv. Wisconsins 38; test: Tobacco callus bioassay for cytotoxicity (herbicidal activity); assay type: cell-based; conditions: Nicotiana tabacum, 672 h
Description: The novel compounds have also been tested in tobacco callus bioassay for cytotoxicity (herbicidal activity) and induction of cell death. The compounds to be tested were dissolved in dimethylsulfoxide (DMSO) and the solution brought up to 10^−3 M with distilled water. […] Cytokinin-dependent tobacco callus Nicotiana tabacum L. cv. Wisconsins 38 Murashige-Skoog medium, containing per 1 liter: 4 μmol nicotinic acid, 2.4 μmol pyridoxine hydrochloride, 1.2 μmol thiamine, 26.6 μmol glycine, 1.37 μmol glutamine, 1.8 μmol myo.inositol, 30 g of sucrose, 8 g of agar, […] α-naphthylacetic acid and 0.5 μmol 6-benzylaminopurine. Sub cultivation was carried out every three weeks. Fourteen days before the bioassay, the callus tissue was transferred to the media without 6-benzylaminopurine. Compounds were tested with two different concentrations of 6-benzylaminopurine (10^−5 M and 10^−6 M). Inhibitory growth activity was determined from the increase in fresh callus weight after four weeks of cultivation. Five replicates were prepared for each concentration tested and the entire test was repeated at least twice.

Sequence of cdk1/cyclin B (CDC2) (P06493 whole entry, species assumed): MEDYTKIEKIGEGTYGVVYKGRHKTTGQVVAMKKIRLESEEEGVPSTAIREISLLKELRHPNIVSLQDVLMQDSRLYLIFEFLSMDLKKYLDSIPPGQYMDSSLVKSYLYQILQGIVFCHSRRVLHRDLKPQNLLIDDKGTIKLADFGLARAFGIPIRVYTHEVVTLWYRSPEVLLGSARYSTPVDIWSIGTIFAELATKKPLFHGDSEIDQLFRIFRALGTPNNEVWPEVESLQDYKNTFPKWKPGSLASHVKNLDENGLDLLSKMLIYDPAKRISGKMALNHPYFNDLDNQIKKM
Sequence of cdk1/cyclin B (CDC2) (P14635 whole entry partner, species assumed): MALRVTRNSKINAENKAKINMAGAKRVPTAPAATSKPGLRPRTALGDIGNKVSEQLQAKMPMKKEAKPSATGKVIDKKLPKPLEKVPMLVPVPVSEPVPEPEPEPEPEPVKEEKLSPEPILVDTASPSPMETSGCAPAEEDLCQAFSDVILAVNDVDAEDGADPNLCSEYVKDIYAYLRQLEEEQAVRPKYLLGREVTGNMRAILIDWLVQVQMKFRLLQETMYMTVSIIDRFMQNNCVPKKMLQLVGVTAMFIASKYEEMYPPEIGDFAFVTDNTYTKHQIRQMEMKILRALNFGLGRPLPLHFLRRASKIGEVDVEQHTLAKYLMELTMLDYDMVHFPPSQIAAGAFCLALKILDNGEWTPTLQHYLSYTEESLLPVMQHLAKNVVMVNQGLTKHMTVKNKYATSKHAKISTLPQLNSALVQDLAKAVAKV
Sequence of MMK1 protein kinase (A0AAV1B7B8 1-394): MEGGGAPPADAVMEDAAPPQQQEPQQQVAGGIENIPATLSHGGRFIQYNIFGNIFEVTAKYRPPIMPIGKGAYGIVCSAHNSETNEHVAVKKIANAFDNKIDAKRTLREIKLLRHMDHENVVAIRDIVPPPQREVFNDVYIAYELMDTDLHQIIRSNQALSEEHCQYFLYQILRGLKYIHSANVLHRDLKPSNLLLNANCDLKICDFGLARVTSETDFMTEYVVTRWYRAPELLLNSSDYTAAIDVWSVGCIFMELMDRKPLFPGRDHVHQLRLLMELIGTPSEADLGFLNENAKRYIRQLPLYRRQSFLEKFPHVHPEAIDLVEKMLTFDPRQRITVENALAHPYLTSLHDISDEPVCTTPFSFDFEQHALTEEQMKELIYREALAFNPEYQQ

Molecule: CC(C)c1n[nH]c2c(Nc3cccc(Cl)c3)nc(N[C@@H](CO)C(C)C)nc12
GI50 [1]: 1200 nM
EC50 (normal human lymphocytes): 3.2 µM
Max β-Gal. Activtity Conc. [2]: 7 µM
GI50 (B16): 1.7 µM

Effect (β-adrenergic receptors; simultaneous addition, 30 min): inhibition
IC50 (β-adrenergic receptors): 25 ± 2 µM
Molecule: CC(C)c1n[nH]c2c(NCc3ccccc3)nc(NC(CO)C(C)C)nc12 (stereo not drawn)

Molecule: COc1ccc(CNc2nc(NC3CCCC3)nc3c(C(C)C)n[nH]c23)cc1
Max β-Gal. Activtity Conc. [2]: 21 µM

Molecule: CC[C@H](CO)Nc1nc(Nc2cccc(Cl)c2)c2[nH]nc(C(C)C)c2n1
EC50 (normal human lymphocytes): 1.8 µM
Max β-Gal. Activtity Conc. [2]: 12 µM

IC50 (cdk1/cyclin B (CDC2); cell free system (Table 8)): > 50000 nM
IC50 ([4]; Homo sapiens, KG-1): 42 ± 5 µM
IC50 ([5]; Homo sapiens, MOLT-3): 19 ± 2 µM
Molecule: CC(C)c1n[nH]c2c(SCc3ccccc3)nc(NCCCO)nc12 [Compound 145, 5-(3-hydroxypropylamino)-7-benzylthio-3-isopropylpyrazolo[4,3-d]pyrimidine]
IC50 ([3]; Homo sapiens, Lymphocyte): 18 ± 1.6 µM

IC50 (cdk1/cyclin B (CDC2); cell free system (Table 8)): 1000 nM
IC50 [4]: 15.3 ± 2.4 µM
IC50 [5]: 14 ± 3.2 µM
Molecule: 5-(hexylamino)-7-[N-(3,4-dihydroxybenzyl-N-methyl]amino-isopropylpyrazolo[4,3-d]pyrimidine [Compound 41]
IC50 [3]: 10 ± 2 µM

IC50 (MMK1 protein kinase): 1300 nM
Molecule: CC[C@H](CO)Nc1nc(NCc2ccccc2)c2[nH]nc(C)c2n1
GI50 [1]: 3400 nM
EC50 (normal human lymphocytes): 9.5 µM
Max β-Gal. Activtity Conc. [2]: 9.5 µM
GI50 (B16): 4.2 µM

Molecule: CC[C@H](CO)Nc1nc(NCc2ccc(OC)cc2)c2[nH]nc(C(C)C)c2n1
Max β-Gal. Activtity Conc. [2]: 0.8 µM

Molecule: CC(C)c1n[nH]c2c(Nc3cccc(Cl)c3)nc(NC3CCCC3)nc12
Max β-Gal. Activtity Conc. [2]: 11.5 µM

IC50 (cdk1/cyclin B (CDC2); cell free system (Table 8)): > 50000 nM
IC50 [4]: 12 ± 1 µM
IC50 [5]: 13.4 ± 1.4 µM
Molecule: CC(C)c1n[nH]c2c(N[C@@H](CO)c3ccccc3)nc(NC[C@H](O)CO)nc12 [Compound 158, 5-(2,3-dihydroxypropylamino)-7-[(R,S)-(1-phenyl-2-hydroxyethyl)amino]-3-isopropylpyrazolo[4,3-d]pyrimidine]
IC50 [3]: 10 ± 1 µM

Effect: activation (β-adrenergic receptors; simultaneous addition, 30 min): 1.8-fold activation
Molecule: CC[C@H](CO)Nc1nc(NCc2ccc(O)cc2)c2[nH]nc(C(C)C)c2n1

Effect (β-adrenergic receptors; simultaneous addition, 30 min): inhibition
IC50 (β-adrenergic receptors): 8 ± 1 µM
Molecule: 5-(hexylamino)-7-(1-phenyl-2-hydroxyethylamino)-3-isopropylpyrazolo[4,3-d]pyrimidine [Compound 98]

IC50 (cdk1/cyclin B (CDC2)): 80 nM
IC50 (β-adrenergic receptors): 25 ± 2 µM
Molecule: CC(C)c1n[nH]c2c(NCc3ccccc3)nc(NCCCN)nc12 [Compound 17, 5-(3-aminopropylamino)-7-benzylamino-3-isopropylpyrazolo[4,3-d]pyrimidine]
IC50 ([6]; read-out: 10^−5 M BAP IC50, 10^−5 M 6-benzylaminopurine, four weeks): > 50 µM
IC50 ([6]; read-out: 10^−6 M BAP IC50, 10^−6 M 6-benzylaminopurine, four weeks): 48 µM

IC50 (MMK1 protein kinase): 400 nM
Molecule: Cc1n[nH]c2c(NCc3ccccc3)nc(N[C@@H](CO)C(C)C)nc12
GI50 [1]: 2800 nM
EC50 (normal human lymphocytes): 6.5 µM
Max β-Gal. Activtity Conc. [2]: 6.5 µM
GI50 (B16): 4.3 µM

IC50 (cdk1/cyclin B (CDC2)): 200 nM
IC50 (cdk1/cyclin B (CDC2); cell free system (Table 8)): 1000 nM
IC50 ([4]; Homo sapiens, KG-1): 25 ± 4.4 µM
IC50 ([5]; Homo sapiens, MOLT-3): 24 ± 2.2 µM
Molecule: CC(C)c1n[nH]c2c(NCc3ccccc3)nc(NCCCO)nc12 [Compound 7, 5-(3-hydroxypropylamino)-7-benzylamino-3-isopropylpyrazolo[4,3-d]pyrimidine]
IC50 ([3]; Homo sapiens, Lymphocyte): 9 ± 0.2 µM
